# Laboratory results from patent US20170121319A1, “Herbicidal Compounds” (Syngenta Participations AG, priority 2014, published 2017).
# Experiments:
# Type in all cases: in vivo
# Design in all cases: key: 5=total damage to plant; 0=no damage to plant
# [1] = system: ABUTH = Abutilon theophrasti; assay: Pre-emergence herbicidal activity, glasshouse pot test
# Experimental: (§1) Seeds of a variety of test species were sown in standard soil in pots. After cultivation for one day (pre-emergence) under controlled conditions in a glasshouse (at 24/16° C., day/night; 14 hours light; 65% humidity), the plants were sprayed with an aqueous spray solution derived from the formulation of the technical active ingredient in acetone/water (50:50) solution containing 0.5% Tween 20 (polyoxyethelyene sorbitan monolaurate, CAS RN 9005-64-5). The test plants were then grown in a glasshouse under controlled conditions (at 24/16° C., day/night; 14 hours light; 65% humidity) and watered twice daily. After 13 days, the test was evaluated (5=total damage to plant; 0=no damage to plant). Pre- and post-emergence testing was carried out as detailed above on the compounds A1, A2, A4 and A5 and their respective S-enantiomers.
# [2] = system: AMARE = Amaranthus retroflexus; assay: as above
# Experimental: as §1
# [3] = system: ECHCG = Echinochloa crus-galli; assay: as above
# Experimental: as §1
# LOLPE [4] = assay: as above; conditions: comparison of enantiomers
# Experimental: as §1
# SETFA = Setaria faberi [5] = assay: as above; conditions: for SEFTA damage score (0-5): comparison of enantiomers
# Experimental: as §1
# ZEAMX = Zea mays [6] = assay: as above
# Experimental: as §1
# [7] = system: ABUTH = Abutilon theophrasti; assay: Post-emergence herbicidal activity, glasshouse pot test
# Experimental: (§2) Seeds of a variety of test species were sown in standard soil in pots. After 8 days cultivation (post-emergence) under controlled conditions in a glasshouse (at 24/16° C., day/night; 14 hours light; 65% humidity), the plants were sprayed with an aqueous spray solution derived from the formulation of the technical active ingredient in acetone/water (50:50) solution containing 0.5% Tween 20 (polyoxyethelyene sorbitan monolaurate, CAS RN 9005-64-5). The test plants were then grown in a glasshouse under controlled conditions (at 24/16° C., day/night; 14 hours light; 65% humidity) and watered twice daily. After 13 days, the test was evaluated (5=total damage to plant; 0=no damage to plant). Pre- and post-emergence testing was carried out as detailed above on the compounds A1, A2, A4 and A5 and their respective S-enantiomers.
# [8] = system: AMARE = Amaranthus retroflexus; assay: as above
# Experimental: as §2
# [9] = system: ECHCG = Echinochloa crus-galli; assay: as above
# Experimental: as §2
# LOLPE [10] = assay: as above; conditions: comparison of enantiomers
# Experimental: as §2
# SETFA = Setaria faberi [11] = assay: as above; conditions: for SEFTA damage score (0-5): comparison of enantiomers
# Experimental: as §2
# ZEAMX = Zea mays [12] = assay: as above
# Experimental: as §2
# [13] = comparison of enantiomers, 62.5 g/Ha
# [14] = comparison of enantiomers, 250 g/Ha
# [15] = 1000 g/Ha, evaluated after 13 days
SMILES,"ABUTH damage score (0-5) [1, 13]","ABUTH damage score (0-5) [1, 14]","AMARE damage score (0-5) [2, 13]","AMARE damage score (0-5) [2, 14]","ECHCG damage score (0-5) [3, 13]","ECHCG damage score (0-5) [3, 14]",LOLPE damage score (0-5) (LOLPE [4]; 62.5 g/Ha),SEFTA damage score (0-5) (SETFA = Setaria faberi [5]; 250 g/Ha),ZEAMX damage score (0-5) (ZEAMX = Zea mays [6]; [13]),ZEAMX damage score (0-5) (ZEAMX = Zea mays [6]; [14]),"ABUTH damage score (0-5) [7, 13]","ABUTH damage score (0-5) [7, 14]","AMARE damage score (0-5) [8, 13]","AMARE damage score (0-5) [8, 14]","ECHCG damage score (0-5) [9, 13]","ECHCG damage score (0-5) [9, 14]",LOLPE damage score (0-5) (LOLPE [10]; 62.5 g/Ha),LOLPE damage score (0-5) (LOLPE [10]; 250 g/Ha),SEFTA damage score (0-5) (SETFA = Setaria faberi [11]; 62.5 g/Ha),ZEAMX damage score (0-5) (ZEAMX = Zea mays [12]; [14]),further results
"CCO[C@H]1C(O)N(c2cc(C(C)(C)C)on2)C(=O)N1C (single isomer, unassigned) [A2 S-enantiomer, reference compound]",1,1,5,5,0,3,1,0,1,1,1,1,5,5,0,1,0,1,0,1,–
"CCO[C@@H]1C(O)N(c2cc(C(C)(C)C)on2)C(=O)N1C (single isomer, unassigned) [Example A2]",3,3,5,5,5,4,3,5,4,4,5,5,5,5,5,5,–,5,3,5,"ABUTH damage score (0-5) [1, 15]: 5; AMARE damage score (0-5) [2, 15]: 5; ECHCG damage score (0-5) [3, 15]: 4; SETFA damage score (0-5) (SETFA = Setaria faberi [5]; [15]): 1; ZEAMX damage score (0-5) (ZEAMX = Zea mays [6]; [15]): 2; ABUTH damage score (0-5) [7, 15]: 5; AMARE damage score (0-5) [8, 15]: 5; ECHCG damage score (0-5) [9, 15]: 5; SETFA damage score (0-5) (SETFA = Setaria faberi [11]; [15]): 5; ZEAMX damage score (0-5) (ZEAMX = Zea mays [12]; [15]): 4; ZEAMX damage score (0-5) (ZEAMX = Zea mays [12]; [13]): 5"
"CO[C@H]1C(O)N(c2cc(C(C)(C)C)on2)C(=O)N1C (stereo partly drawn) [A1 S-enantiomer, reference compound]",0,0,5,5,0,0,0,0,0,0,0,2,5,5,1,1,0,1,0,1,LOLPE damage score (0-5) (LOLPE [4]; 250 g/Ha): 0; SEFTA damage score (0-5) (SETFA = Setaria faberi [5]; 62.5 g/Ha): 0; SEFTA damage score (0-5) (SETFA = Setaria faberi [11]; 250 g/Ha): 2; ZEAMX damage score (0-5) (ZEAMX = Zea mays [12]; [13]): 1
